From ChEMBL document CHEMBL1201862, “PubChem BioAssay data set” (2004)
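Assay format: 96-well plates, 48-hour exposure. The concentration for 50% growth inhibition is given as GI50.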 Active and inactive are the calls of the source. No stated cut-off is given here; in the data, active = GI50 up to about 1.1 µM and inactive = higher. Non-standard residues stand in square brackets, D forms with d. Residues, ends and D or L forms follow the SMILES beside them. ξ: configuration not given here. *: point of attachment. NMeF = CN[C@@H](Cc1ccccc1)C(=O)O; ξNMeV = CNC(C(=O)O)C(C)C; Boc = CC(C)(C)OC(=O)*; OBn = c1ccc(CO*)cc1

Experiments:
Test in all cases: NCI-60 cell line screen, 48 h
A498 = system: A498
COLO 205 = system: COLO 205
HCT-116 = system: HCT-116
HCT-15 = system: HCT-15
HT-29 = system: HT-29
LOX IMVI = system: LOX IMVI
Malme-3M = system: Malme-3M
NCI-H522 = system: NCI-H522
OVCAR-8 = system: OVCAR-8
RPMI-8226 = system: RPMI-8226
SK-MEL-28 = system: SK-MEL-28
SN12C = system: SN12C
SNB-78 = system: SNB-78
SR = system: SR
SW-620 = system: SW-620
UACC-257 = system: UACC-257
UACC-62 = system: UACC-62
UO-31 = system: UO-31
MDA-MB-231 = system: MDA-MB-231
T47D = system: T47D

Compound: COC(=O)C(Cc1nc2ccccc2nc1C)/C(=N\NC(N)=O)C(=O)Nc1cccc([N+](=O)[O-])c1 (centres undefined)
- GI50 (A498): > 100 µM (inactive)
- GI50 (COLO 205): 88.3 µM (inactive)
- GI50 (HCT-116): > 100 µM (inactive)
- GI50 (HCT-15): > 100 µM
- GI50 (HT-29): > 100 µM (inactive)
- GI50 (LOX IMVI): > 100 µM (inactive)
- GI50 (Malme-3M): > 100 µM (inactive)
- GI50 (NCI-H522): 10.8 µM (inactive)
- GI50 (OVCAR-8): 80.7 µM (inactive)
- GI50 (RPMI-8226): > 100 µM (inactive)
- GI50 (SK-MEL-28): > 100 µM (inactive)
- GI50 (SN12C): > 100 µM (inactive)
- GI50 (SNB-78): > 100 µM (inactive)
- GI50 (SR): 24.4 µM (inactive)
- GI50 (SW-620): > 100 µM (inactive)
- GI50 (UACC-257): > 100 µM (inactive)
- GI50 (UACC-62): 45.2 µM (inactive)
- GI50 (UO-31): > 100 µM (inactive)

Compound: CC(C)C(C(=O)N1CCC[C@@H]1C(=O)OCc1ccccc1)N(C)C(=O)C(C(C)C)N(C)C(=O)[C@H](Cc1ccccc1)N(C)C(=O)[C@H](NC(=O)OC(C)(C)C)C(C)C (some centres undefined) (Boc-[dV][NMeF][ξNMeV][ξNMeV][dP]-OBn)
- GI50 (A498): > 100 µM (inactive)
- GI50 (COLO 205): > 100 µM (inactive)
- GI50 (HCT-116): 14.5 µM (inactive)
- GI50 (HCT-15): > 30.9 µM
- GI50 (HT-29): > 45.4 µM (inactive)
- GI50 (LOX IMVI): > 60.3 µM (inactive)
- GI50 (Malme-3M): > 89.5 µM (inactive)
- GI50 (NCI-H522): > 100 µM (inactive)
- GI50 (OVCAR-8): > 100 µM (inactive)
- GI50 (RPMI-8226): 10.9 µM (inactive)
- GI50 (SK-MEL-28): > 100 µM (inactive)
- GI50 (SN12C): > 100 µM (inactive)
- GI50 (SNB-78): > 100 µM (inactive)
- GI50 (SR): > 29.8 µM (inactive)
- GI50 (SW-620): > 100 µM (inactive)
- GI50 (UACC-257): 13.6 µM (inactive)
- GI50 (UACC-62): > 100 µM (inactive)
- GI50 (UO-31): > 29.2 µM (inactive)

Compound: C1COCCN1.S=C(S)N1CCOCC1
- GI50 (A498): 24.9 µM (inactive)
- GI50 (COLO 205): 0.661 µM (active)
- GI50 (HCT-116): 2.12 µM (inactive)
- GI50 (HCT-15): 6.7 µM
- GI50 (HT-29): 0.811 µM (active)
- GI50 (LOX IMVI): 18.3 µM (inactive)
- GI50 (MDA-MB-231): > 100 µM (inactive)
- GI50 (Malme-3M): 28.4 µM (inactive)
- GI50 (NCI-H522): 0.973 µM (active)
- GI50 (OVCAR-8): > 100 µM (inactive)
- GI50 (RPMI-8226): 1.4 µM (inactive)
- GI50 (SK-MEL-28): 10.3 µM (inactive)
- GI50 (SN12C): > 100 µM (inactive)
- GI50 (SNB-78): 41.5 µM (inactive)
- GI50 (SR): 1.04 µM (active)
- GI50 (SW-620): 2.55 µM (inactive)
- GI50 (T47D): > 100 µM (inactive)
- GI50 (UACC-257): 4.68 µM (inactive)
- GI50 (UACC-62): 3.8 µM (inactive)
- GI50 (UO-31): > 100 µM (inactive)

Compound: COCOCC[C@@H]1CC=CC(NC(=O)OCc2ccccc2)C1/C=C/C(=O)CCC1OCCO1 (some centres undefined)
- GI50 (A498): 71.1 µM (inactive)
- GI50 (COLO 205): 20.7 µM (inactive)
- GI50 (HCT-116): 17.7 µM (inactive)
- GI50 (HCT-15): 16.4 µM
- GI50 (HT-29): 38.9 µM (inactive)
- GI50 (LOX IMVI): 18.5 µM (inactive)
- GI50 (Malme-3M): 98.2 µM (inactive)
- GI50 (NCI-H522): 16.4 µM (inactive)
- GI50 (OVCAR-8): 19.1 µM (inactive)
- GI50 (RPMI-8226): 26.1 µM (inactive)
- GI50 (SK-MEL-28): 42.1 µM (inactive)
- GI50 (SN12C): 25.2 µM (inactive)
- GI50 (SNB-78): 48.1 µM (inactive)
- GI50 (SR): 3.79 µM (inactive)
- GI50 (SW-620): 22.8 µM (inactive)
- GI50 (UACC-257): 25.4 µM (inactive)
- GI50 (UACC-62): 25.5 µM (inactive)
- GI50 (UO-31): 46.6 µM (inactive)

Compound: COC1=C(NC(C)=O)C(=O)c2nc3n(c2C1=O)CCC3
- GI50 (A498): 23.6 µM (inactive)
- GI50 (COLO 205): 21.4 µM (inactive)
- GI50 (HCT-116): 15.7 µM (inactive)
- GI50 (HCT-15): 23.4 µM
- GI50 (HT-29): 26.5 µM (inactive)
- GI50 (LOX IMVI): 16.1 µM (inactive)
- GI50 (MDA-MB-231): 13.3 µM (inactive)
- GI50 (Malme-3M): 20.4 µM (inactive)
- GI50 (NCI-H522): 22.5 µM (inactive)
- GI50 (OVCAR-8): 16.7 µM (inactive)
- GI50 (RPMI-8226): 24.4 µM (inactive)
- GI50 (SK-MEL-28): 18.7 µM (inactive)
- GI50 (SN12C): 17.9 µM (inactive)
- GI50 (SNB-78): 13 µM (inactive)
- GI50 (SR): 36.9 µM (inactive)
- GI50 (SW-620): 20.9 µM (inactive)
- GI50 (T47D): 34.3 µM (inactive)
- GI50 (UACC-257): 16.6 µM (inactive)
- GI50 (UACC-62): 18.2 µM (inactive)
- GI50 (UO-31): 24.9 µM (inactive)
